Assay results taken from patent US6694171B1, “X-ray imaging of tumors with dextran carrier of platinum compounds” (Yeda Research and Development, priority 1997, dated 2004).

Assay: Interaction between CDDP and ADH or hydrazine by OPDA colour reaction (FIGS. 4A-4B)
Type: physicochemical
Conditions: 6 μg CDDP, OPDA 4 mg/ml
Method: The absorbance at 703 nm was determined (FIG. 4A).

leveling-off ratio ligand:CDDP: 20
Structure (SMILES): NNC(=O)CCCCC(=O)NN [ADH, adipic acid dihydrazide]
